Laboratory results as given in ChEMBL document CHEMBL1201862, “PubChem BioAssay data set” (2004).
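Assay format: 96-well plates, 48-hour exposure. At the GI50, growth is halved.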 Activity calls are given as the source filed them. No stated cut-off is given here; in the data, active = GI50 up to about 1.1 µM and inactive = higher.

Tests used:
Test in all cases: growth of human tumour cells (NCI), 48 h
UACC-257 = system: UACC-257
SF-268 = system: SF-268
HOP-62 = system: HOP-62
SK-MEL-28 = system: SK-MEL-28
K562 = system: K562
OVCAR-3 = system: OVCAR-3
A498 = system: A498
SF-539 = system: SF-539
OVCAR-5 = system: OVCAR-5
RXF 393 = system: RXF 393
SNB-19 = system: SNB-19
NCI-H522 = system: NCI-H522
MDA-MB-231 = system: MDA-MB-231
KM12 = system: KM12
LOX IMVI = system: LOX IMVI
ACHN = system: ACHN
BT-549 = system: BT-549
SK-MEL-5 = system: SK-MEL-5
OVCAR-4 = system: OVCAR-4

Measured: GI50

COCCN(C(C)=O)C1CCC2(SCCS2)c2[nH]c3ccccc3c21 (stereo unspecified)
inactive: UACC-257 > 100 µM | SF-268 > 100 µM | HOP-62 > 100 µM | SK-MEL-28 > 100 µM | K562 > 100 µM | OVCAR-3 > 100 µM | A498 > 100 µM | SF-539 > 100 µM | OVCAR-5 > 100 µM | RXF 393 > 100 µM | SNB-19 > 100 µM | NCI-H522 > 100 µM | MDA-MB-231 > 100 µM | KM12 > 100 µM | LOX IMVI > 100 µM | ACHN > 100 µM | BT-549 > 100 µM | SK-MEL-5 > 100 µM

Cc1cc2c(cc1Cl)S(=O)(=O)OC(c1ccc([N+](=O)[O-])cc1)=N2
inactive: UACC-257 > 100 µM | SF-268 > 100 µM | HOP-62 > 100 µM | SK-MEL-28 > 100 µM | K562 91 µM | OVCAR-3 > 100 µM | A498 > 100 µM | SF-539 > 100 µM | OVCAR-4 > 100 µM | RXF 393 > 100 µM | SNB-19 > 100 µM | NCI-H522 > 100 µM | MDA-MB-231 > 100 µM | KM12 > 100 µM | LOX IMVI > 100 µM | ACHN > 100 µM | BT-549 > 100 µM | SK-MEL-5 > 100 µM

O=C(O)CC[P+](c1ccccc1)(c1ccccc1)c1ccccc1
inactive: UACC-257 23.2 µM | SF-268 31.3 µM | HOP-62 37.2 µM | SK-MEL-28 > 100 µM | K562 11.7 µM | OVCAR-3 13.5 µM | A498 42.9 µM | OVCAR-4 46.2 µM | OVCAR-5 38.1 µM | RXF 393 > 100 µM | SNB-19 24.2 µM | NCI-H522 24.5 µM | MDA-MB-231 57.5 µM | KM12 29 µM | LOX IMVI 30.7 µM | ACHN > 100 µM | BT-549 21.1 µM | SK-MEL-5 14.6 µM

C=C1CCc2ccccc2C1=O
inactive: UACC-257 > 100 µM | SF-268 > 100 µM | HOP-62 > 100 µM | K562 37.9 µM | OVCAR-3 > 100 µM | A498 > 100 µM | SF-539 > 100 µM | OVCAR-4 > 100 µM | OVCAR-5 > 100 µM | RXF 393 > 100 µM | SNB-19 > 100 µM | NCI-H522 > 100 µM | MDA-MB-231 > 100 µM | KM12 > 100 µM | ACHN > 100 µM | BT-549 > 100 µM | SK-MEL-5 > 100 µM

CSc1[nH]cnc1C(N)=S
inactive: UACC-257 > 100 µM | SF-268 > 100 µM | HOP-62 > 100 µM | SK-MEL-28 > 100 µM | OVCAR-3 > 100 µM | A498 > 100 µM | SF-539 > 100 µM | OVCAR-5 > 100 µM | RXF 393 > 100 µM | SNB-19 > 100 µM | NCI-H522 > 100 µM | MDA-MB-231 > 100 µM | KM12 > 100 µM | LOX IMVI > 100 µM | ACHN > 100 µM | BT-549 > 100 µM | SK-MEL-5 > 100 µM

COc1c(O)cc2c(c1O)C(=O)C1=C(CCCC1)C2=O
inactive: UACC-257 34 µM | SF-268 24.4 µM | HOP-62 33.4 µM | SK-MEL-28 24 µM | OVCAR-3 20.3 µM | A498 17.9 µM | SF-539 15.6 µM | OVCAR-4 21.6 µM | OVCAR-5 38.4 µM | RXF 393 14.9 µM | SNB-19 31.5 µM | NCI-H522 13 µM | MDA-MB-231 19 µM | KM12 20.2 µM | LOX IMVI 14.7 µM | ACHN 23 µM | BT-549 23 µM | SK-MEL-5 23.9 µM

C[C@]12CC[C@@H]3c4ccc(OC(=O)c5ccccc5)cc4CC[C@H]3[C@@H]1CC[C@@H]2Oc1c2ccccc2nc2ccccc12
inactive: UACC-257 13.6 µM | SF-268 3.93 µM | HOP-62 8.17 µM | SK-MEL-28 12 µM | K562 6.38 µM | OVCAR-3 7.66 µM | A498 17.4 µM | OVCAR-4 15.8 µM | OVCAR-5 16.6 µM | RXF 393 8.09 µM | SNB-19 7.45 µM | NCI-H522 8.15 µM | MDA-MB-231 11.5 µM | KM12 14 µM | LOX IMVI 7.85 µM | ACHN 37 µM | BT-549 9.98 µM | SK-MEL-5 8.61 µM

Cc1cc(S(=O)(=O)Nc2nc3ccccc3nc2-c2ccc(Cl)cc2)c(S)cc1Cl
inactive: UACC-257 21.7 µM | SF-268 17.7 µM | HOP-62 22.4 µM | SK-MEL-28 16.8 µM | K562 19.9 µM | OVCAR-3 16.3 µM | A498 16.3 µM | SF-539 19.9 µM | OVCAR-4 14.6 µM | OVCAR-5 19.6 µM | RXF 393 23 µM | SNB-19 19 µM | NCI-H522 13.6 µM | MDA-MB-231 24.5 µM | KM12 17.2 µM | ACHN 16.7 µM | BT-549 23.8 µM | SK-MEL-5 14 µM

COc1ccc(-c2oc3ccc(C)cc3c(=O)c2O)cc1
inactive: UACC-257 > 100 µM | SF-268 45 µM | HOP-62 > 100 µM | SK-MEL-28 > 100 µM | OVCAR-3 > 100 µM | A498 > 100 µM | SF-539 43.4 µM | OVCAR-4 57.7 µM | OVCAR-5 > 100 µM | RXF 393 > 100 µM | SNB-19 44.4 µM | NCI-H522 > 100 µM | MDA-MB-231 71.4 µM | KM12 > 100 µM | LOX IMVI > 100 µM | ACHN 31.9 µM | BT-549 > 100 µM | SK-MEL-5 > 100 µM

N=C(CC/C(N)=N/O)NO
inactive: UACC-257 > 100 µM | SF-268 > 100 µM | HOP-62 > 100 µM | SK-MEL-28 > 100 µM | K562 > 100 µM | OVCAR-3 > 100 µM | A498 > 100 µM | OVCAR-4 > 100 µM | OVCAR-5 > 100 µM | RXF 393 > 100 µM | SNB-19 > 100 µM | NCI-H522 > 100 µM | MDA-MB-231 > 100 µM | KM12 > 100 µM | LOX IMVI > 100 µM | ACHN > 100 µM | BT-549 > 100 µM | SK-MEL-5 > 100 µM

O=S(=O)(O)c1ccc2c(/N=N/c3ccccc3)c(O)c(S(=O)(=O)O)cc2c1
inactive: UACC-257 > 100 µM | SF-268 > 100 µM | HOP-62 > 100 µM | SK-MEL-28 > 100 µM | K562 > 100 µM | OVCAR-3 > 100 µM | A498 > 100 µM | SF-539 > 100 µM | OVCAR-4 > 100 µM | OVCAR-5 > 100 µM | RXF 393 > 100 µM | SNB-19 > 100 µM | NCI-H522 > 100 µM | MDA-MB-231 > 100 µM | KM12 > 100 µM | ACHN > 100 µM | BT-549 > 100 µM | SK-MEL-5 > 100 µM
